Source: PubChem BioAssay (NCI)
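All cell lines were grown in 96-well plates and treated with compound for 48 hours. GI50: concentration for 50% inhibition of growth. TGI denotes the concentration required for complete inhibition of growth.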

Tests used:
Assay in all cases: NCI-60 cell line screen, 48 h
UACC-257 melanoma = test system: UACC-257 melanoma
SR leukemia = test system: SR leukemia
LOX IMVI melanoma = test system: LOX IMVI melanoma
MOLT-4 leukemia = test system: MOLT-4 leukemia
IGROV1 ovarian = test system: IGROV1 ovarian
MDA-MB-231 breast = test system: MDA-MB-231 breast
CAKI-1 renal = test system: CAKI-1 renal
HCT-15 colon = test system: HCT-15 colon
UO-31 renal = test system: UO-31 renal
SF-268 CNS = test system: SF-268 CNS
TK-10 renal = test system: TK-10 renal
NCI-H522 lung = test system: NCI-H522 lung
SNB-19 CNS = test system: SNB-19 CNS
HT29 colon = test system: HT29 colon
NCI-H460 lung = test system: NCI-H460 lung
U251 CNS = test system: U251 CNS
NCI-H226 lung = test system: NCI-H226 lung
HS 578T breast = test system: HS 578T breast
OVCAR-4 ovarian = test system: OVCAR-4 ovarian
SW-620 colon = test system: SW-620 colon
NCI/ADR-RES ovarian = test system: NCI/ADR-RES ovarian
SK-MEL-5 melanoma = test system: SK-MEL-5 melanoma
RXF 393 renal = test system: RXF 393 renal
SN12C renal = test system: SN12C renal
SK-MEL-28 melanoma = test system: SK-MEL-28 melanoma
HCT-116 colon = test system: HCT-116 colon
SK-MEL-2 melanoma = test system: SK-MEL-2 melanoma
ACHN renal = test system: ACHN renal
HL-60(TB) leukemia = test system: HL-60(TB) leukemia
RPMI-8226 leukemia = test system: RPMI-8226 leukemia
SF-539 CNS = test system: SF-539 CNS
A549 NSCLC = test system: A549 NSCLC
HOP-92 NSCLC = test system: HOP-92 NSCLC
MDA-MB-435 = test system: MDA-MB-435
CCRF-CEM leukemia = test system: CCRF-CEM leukemia
SNB-75 CNS = test system: SNB-75 CNS
A498 renal = test system: A498 renal
NCI-H23 lung = test system: NCI-H23 lung
DU-145 prostate = test system: DU-145 prostate
OVCAR-5 ovarian = test system: OVCAR-5 ovarian
UACC-62 melanoma = test system: UACC-62 melanoma
M14 melanoma = test system: M14 melanoma
786-0 renal = test system: 786-0 renal
SF-295 CNS = test system: SF-295 CNS
K-562 leukemia = test system: K-562 leukemia
MALME-3M melanoma = test system: MALME-3M melanoma
COLO 205 colon = test system: COLO 205 colon
EKVX NSCLC = test system: EKVX NSCLC
PC-3 prostate = test system: PC-3 prostate
KM12 colon = test system: KM12 colon
T-47D breast = test system: T-47D breast
HOP-62 NSCLC = test system: HOP-62 NSCLC
OVCAR-8 ovarian = test system: OVCAR-8 ovarian
OVCAR-3 ovarian = test system: OVCAR-3 ovarian
MCF7 breast = test system: MCF7 breast
HCC-2998 colon = test system: HCC-2998 colon
SK-OV-3 ovarian = test system: SK-OV-3 ovarian
BT-549 breast = test system: BT-549 breast

## COc1cc2c3c(n(CCCn4ccnc4)c(=O)c2cc1OC)-c1cc2c(cc1C3=O)OCO2
UACC-257 melanoma
  GI50: 1200 nM
  TGI: 26800 nM
SR leukemia
  GI50: < 10 nM
  TGI: < 10 nM
LOX IMVI melanoma
  GI50: < 10 nM
  TGI: 171 nM
MOLT-4 leukemia
  GI50: < 10 nM
  TGI: < 10 nM
IGROV1 ovarian
  GI50: 959 nM
  TGI: > 100000 nM
MDA-MB-231 breast
  GI50: 347 nM
  TGI: 3570 nM
CAKI-1 renal
  GI50: < 10 nM
  TGI: 27 nM
HCT-15 colon
  GI50: 824 nM
  TGI: > 100000 nM
UO-31 renal
  GI50: < 26.9 nM
  TGI: > 48300 nM
SF-268 CNS
  GI50: < 10 nM
  TGI: > 100000 nM
TK-10 renal
  GI50: 2220 nM
  TGI: > 100000 nM
NCI-H522 lung
  GI50: 369 nM
  TGI: > 100000 nM
SNB-19 CNS
  GI50: 35.8 nM
  TGI: > 100000 nM
HT29 colon
  GI50: 94.8 nM
  TGI: > 100000 nM
NCI-H460 lung
  GI50: < 10 nM
  TGI: > 21700 nM
U251 CNS
  GI50: < 10 nM
  TGI: 1030 nM
NCI-H226 lung
  GI50: < 13.5 nM
  TGI: 160 nM
HS 578T breast
  GI50: > 100000 nM
  TGI: > 100000 nM
OVCAR-4 ovarian
  GI50: 2900 nM
  TGI: > 100000 nM
SW-620 colon
  GI50: < 10.9 nM
  TGI: > 100000 nM
NCI/ADR-RES ovarian
  GI50: 28.5 nM
  TGI: 3590 nM
SK-MEL-5 melanoma
  GI50: 18.5 nM
  TGI: 133 nM
RXF 393 renal
  GI50: > 100000 nM
  TGI: > 100000 nM
SN12C renal
  GI50: < 10 nM
  TGI: 182 nM
SK-MEL-28 melanoma
  GI50: > 100000 nM
  TGI: > 100000 nM
HCT-116 colon
  GI50: < 10 nM
  TGI: 148 nM
SK-MEL-2 melanoma
  GI50: > 100000 nM
  TGI: > 100000 nM
ACHN renal
  GI50: < 10 nM
  TGI: > 100000 nM
HL-60(TB) leukemia
  GI50: < 10 nM
  TGI: < 19.5 nM
RPMI-8226 leukemia
  GI50: < 10 nM
  TGI: 153 nM
SF-539 CNS
  GI50: < 19.3 nM
A549 NSCLC
  GI50: 52.8 nM
  TGI: > 100000 nM
HOP-92 NSCLC
  TGI: > 100000 nM
MDA-MB-435
  GI50: 72.8 nM
  TGI: 1670 nM
CCRF-CEM leukemia
  GI50: < 10 nM
  TGI: < 10 nM
SNB-75 CNS
  GI50: 34.5 nM
  TGI: > 100000 nM
A498 renal
  GI50: 20.3 nM
  TGI: 87.8 nM
NCI-H23 lung
  GI50: 16.2 nM
  TGI: 164 nM
DU-145 prostate
  GI50: < 10 nM
  TGI: > 100000 nM
OVCAR-5 ovarian
  GI50: 141 nM
  TGI: 8330 nM
UACC-62 melanoma
  GI50: < 10 nM
  TGI: 93.7 nM
M14 melanoma
  GI50: < 10 nM
  TGI: 100 nM
786-0 renal
  GI50: < 10 nM
  TGI: 91.7 nM
SF-295 CNS
  GI50: < 10 nM
  TGI: 1210 nM
K-562 leukemia
  GI50: 12.2 nM
MALME-3M melanoma
  GI50: 791 nM
  TGI: > 31500 nM
COLO 205 colon
  GI50: 312 nM
  TGI: > 100000 nM
EKVX NSCLC
  GI50: 1100 nM
  TGI: > 20900 nM
PC-3 prostate
  GI50: 1280 nM
  TGI: > 100000 nM
KM12 colon
  GI50: 142 nM
  TGI: 9320 nM
T-47D breast
  GI50: < 10 nM
  TGI: < 10 nM
HOP-62 NSCLC
  GI50: < 10 nM
  TGI: 153 nM
OVCAR-8 ovarian
  GI50: 280 nM
  TGI: > 100000 nM
OVCAR-3 ovarian
  GI50: 79.5 nM
  TGI: 804 nM
MCF7 breast
  GI50: < 12.9 nM
  TGI: > 100000 nM
HCC-2998 colon
  GI50: < 10 nM
  TGI: 34.5 nM

## CCCCCCCCCCCCCCCCSC(=NCC)NCC
UACC-257 melanoma
  GI50: 1870 nM
  TGI: 3750 nM
LOX IMVI melanoma
  GI50: 1630 nM
  TGI: 3000 nM
SK-OV-3 ovarian
  GI50: 3360 nM
  TGI: 11600 nM
MDA-MB-231 breast
  GI50: 1310 nM
  TGI: 2690 nM
CAKI-1 renal
  GI50: 1390 nM
  TGI: 2780 nM
UO-31 renal
  GI50: 1620 nM
  TGI: 4090 nM
SNB-19 CNS
  GI50: 3120 nM
  TGI: 15800 nM
BT-549 breast
  GI50: 6160 nM
  TGI: 46900 nM
NCI-H226 lung
  GI50: 2980 nM
  TGI: 14600 nM
HS 578T breast
  GI50: 2800 nM
  TGI: 8840 nM
RXF 393 renal
  GI50: 1630 nM
  TGI: 3470 nM
SN12C renal
  GI50: 1560 nM
  TGI: 2980 nM
SK-MEL-2 melanoma
  GI50: 4050 nM
  TGI: 28400 nM
HL-60(TB) leukemia
  GI50: 1450 nM
  TGI: 3120 nM
SNB-75 CNS
  GI50: 2010 nM
  TGI: 12900 nM
A498 renal
  GI50: 6660 nM
  TGI: 34300 nM
NCI-H23 lung
  GI50: 2050 nM
  TGI: 4990 nM
DU-145 prostate
  GI50: 1620 nM
  TGI: 2980 nM
OVCAR-5 ovarian
  GI50: 3080 nM
  TGI: 12500 nM
UACC-62 melanoma
  GI50: 1670 nM
  TGI: 3100 nM
786-0 renal
  GI50: 3490 nM
  TGI: 20800 nM
SF-295 CNS
  GI50: 1470 nM
  TGI: 2880 nM
COLO 205 colon
  GI50: 1810 nM
  TGI: 3470 nM
PC-3 prostate
  GI50: 1370 nM
  TGI: 2740 nM
T-47D breast
  GI50: 1480 nM
  TGI: 3130 nM
HOP-62 NSCLC
  GI50: 1770 nM
  TGI: 3180 nM
HCC-2998 colon
  GI50: 1850 nM
  TGI: 3280 nM

## COc1ccc(O)c2c(=O)c3c(OC)cc4c(c3oc12)[C@@H]1C=CO[C@@H]1O4
SR leukemia
  GI50: 51.8 nM
MDA-MB-231 breast
  GI50: 7900 nM
  TGI: > 100000 nM
TK-10 renal
  GI50: 4510 nM
  TGI: 34900 nM
BT-549 breast
  GI50: 4770 nM
  TGI: 36500 nM
HS 578T breast
  GI50: 3960 nM
  TGI: > 43000 nM
ACHN renal
  GI50: 321 nM
  TGI: 5640 nM
MDA-MB-435
  GI50: 3300 nM
  TGI: > 100000 nM
DU-145 prostate
  GI50: 3030 nM
  TGI: > 34900 nM
M14 melanoma
  GI50: > 21400 nM
  TGI: > 100000 nM
786-0 renal
  GI50: 9870 nM
  TGI: > 60500 nM
PC-3 prostate
  GI50: > 21400 nM
  TGI: > 100000 nM
T-47D breast
  GI50: 475 nM
  TGI: 13300 nM
